Experimental data taken from patent publication US20230321067A1, “DOSING REGIMEN COMPRISING 3-(1-OXOISOINDOLIN-2-YL)PIPERIDINE-2,6-DIONE DERIVATIVES” (Novartis AG, priority 2020, published 2023).

Experiments:
CYP3A [1] = test: CYP inhibition: CYP3A; type: in vitro ADME; details: I-57 concentrations of up to 100 μM
[2] = Toxicology studies: CNS and respiratory signs; type: in vivo
Excerpt: The non-clinical safety profile of I-57 was established in vitro, and in vivo in rats and cynomolgus monkeys in studies up to 4-weeks duration. Based on the outcome of these studies, QTc interval prolongation was identified as the principal safety signal for I-57. There were other toxicities such as diarrhea and vomiting in monkeys, and mortality, clinical signs and target organ toxicities in rats; however, these occurred at exposures far above those expected to result in clinical activity.

TMEM97 = target: T1, TMEM97 (Homo sapiens, UniProt Q5BJF2); test: Whole cell proteomic analysis in 293T cells: TMEM97; type: cell-based
T1 construct: endogenous in cells; host or cells: 293T
Protocol: Other potential degradation targets of I-57 were evaluated in 293T cells using whole cell proteomic analysis. […] Subsequent analyses have confirmed that FIZ1 is degraded by about 50% at a 10 μM concentration of I-57 ([I-57 Investigator's Brochure]). […] FIZ1 is expressed in the neural retina where it transcriptionally represses the differentiation of photoreceptors. FIZ1 is also expressed in non-ocular tissues with unknown function.

CYP2C19 [3] = target: T2, CYP2C19 (Homo sapiens, UniProt P33261); test: CYP inhibition: CYP2C19; type: in vitro ADME; details: I-57 concentrations of up to 100 μM
CYP3A [4] = test: Time-dependent CYP inhibition: CYP3A; type: in vitro ADME; details: I-57 concentrations of up to 100 μM
[5] = In vivo non-clinical PK, dog
Protocol: The in vivo non-clinical PK profile of I-57 was investigated in mouse, rat, dog and cynomolgus monkey using I-57 free base. […] After p.o. administration, the absorption of I-57 was rapid with peak blood concentration (Tmax) occurring between 1 and 4 hours. […] In high dose PK and toxicology studies with I-57 the exposures in mouse, rat and monkey increased with dose.
(§1) The binding to plasma protein of I-57 in vitro was moderate in all species, with an observed difference between rodents (73% in mouse, 76% in rat) and non-rodents (52% in dog and monkey, 54% in human). Blood-to-plasma ratios were in the range of 0.7-1.8 (human 1.1-1.3). […] Based on results with non-radiolabeled I-57 in the dog, a significant amount of unchanged I-57 was renally eliminated (˜20% of dose).

CYP2E1 = CYP2E1 (Homo sapiens, UniProt P05181); test: CYP inhibition: CYP2E1; type: in vitro ADME; details: I-57 concentrations of up to 100 μM
Treg cells = test: Suppressive potency of Treg cells expanded in the presence of compound (FIG. 2C); type: cell-based
Excerpt: FIG. 2C is a bar graph showing the suppressive potency of Treg cells expanded in the presence of Compound I-57.

CYP2C19 [6] = target: T2, CYP2C19; test: Time-dependent CYP inhibition: CYP2C19; type: in vitro ADME; details: I-57 concentrations of up to 100 μM
CYP2B6 = CYP2B6 (Homo sapiens, UniProt P20813); test: CYP inhibition: CYP2B6; type: in vitro ADME; details: I-57 concentrations of up to 100 μM
[7] = Blood-to-plasma ratio, across species; type: in vitro ADME
Excerpt: as §1

primary human Tregs = test: Suppression of Teff proliferation by in vitro expanded primary human Tregs; type: cell-based
CYP2D6 [8] = target: T3, CYP2D6 (Homo sapiens, UniProt P10635); test: CYP inhibition: CYP2D6; type: in vitro ADME
IKZF2 [9] = target: T4, IKZF2 (Oryctolagus cuniculus, UniProt A0A5F9CPW0); test: Degradation of IKZF2 in primary PBMCs, rabbit (FIG. 3); type: cell-based
T4 construct: endogenous in cells; host or cells: primary rabbit PBMCs
Excerpt: FIG. 3. is a bar graph showing the degradation of IKZF2 in primary PBMCs obtained from rabbit, dog, pig, cynomolgus monkey and human, and in primary splenocytes of mouse and rat and treated with Compound I-57.

IKZF2 [10] = target: IKZF2 (Homo sapiens, UniProt Q96SW2+Q9UKS7); test: Multi-dose PK/PD study in human PBMC adoptive transfer mouse model harboring MDA-MB231 xenografts: IKZF2 expression in human CD4+FOXP3+ regulatory T cells (FIG. 6, 7); type: in vivo; parameters: endogenous in cells; host or cells: primary human PBMCs; details: 14 daily oral doses of 0.3, 1, 3 and 30 mg/kg, hPBMC AdT mouse model
Protocol: FIG. 6 is a pictorial representation of the multi-dose PK/PD study design in the human PBMC adoptive transfer mouse model harboring MDA-MB231 xenografts. Fourteen consecutive daily doses of Compound I-57 was administered at 0.3 mg/kg, 1 mg/kg, 3 mg/kg or 30 mg/kg.
FIG. 7 is a graph showing the change in the IKZF2 expression in human CD4+FOXP3+ regulatory T cells isolated from MDA-MB231 tumor xenografts (Tumor) or blood (Periphery) following 14 daily oral doses of 0.3, 1, 3 and 30 mg/kg Compound I-57 administered to the hPBMC AdT model.

[11] = test system: IFNγ production in Teff cells; test: IFNγ production in Teff cells (FIG. 2D); type: cell-based; details: 2.5 nM, 25 nM and 2.5 μM vs DMSO
plasma protein = test: Plasma protein binding in vitro, rat; type: in vitro ADME
Excerpt: as §1

CYP2C8 = CYP2C8 (Homo sapiens, UniProt P10632); test: Time-dependent CYP inhibition: CYP2C8; type: in vitro ADME; details: I-57 concentrations of up to 100 μM
PXR = PXR (Homo sapiens, UniProt O75469); test: PXR reporter gene assay (CYP3A induction potential); type: cell-based
Excerpt: Based on a PXR reporter gene assay, I-57's induction potential for CYP3A appears to be low.

peripheral T cells = test: Proliferation of peripheral T cells (Ki67 staining) in immunized cynomolgus monkeys (FIG. 9B); type: in vivo, cynomolgus monkey; details: 3 mg/kg daily, recall response phase, compared to immunization alone
Protocol: FIG. 9B. is a graph showing proliferation of peripheral T cells (Mean+/−SEM, % of predose) upon treatment with 0.1 and 3 mg/kg of Compound I-57 in cynomolgus monkeys.

CYP2D6 [12] = target: T3, CYP2D6; test: Time-dependent CYP inhibition: CYP2D6; type: in vitro ADME; details: I-57 concentrations of up to 100 μM
CYP1A2 = CYP1A2 (Homo sapiens, UniProt P05177); test: CYP inhibition: CYP1A2; type: in vitro ADME; details: I-57 concentrations of up to 100 μM
Chain of CYP1A2 (P05177 whole entry): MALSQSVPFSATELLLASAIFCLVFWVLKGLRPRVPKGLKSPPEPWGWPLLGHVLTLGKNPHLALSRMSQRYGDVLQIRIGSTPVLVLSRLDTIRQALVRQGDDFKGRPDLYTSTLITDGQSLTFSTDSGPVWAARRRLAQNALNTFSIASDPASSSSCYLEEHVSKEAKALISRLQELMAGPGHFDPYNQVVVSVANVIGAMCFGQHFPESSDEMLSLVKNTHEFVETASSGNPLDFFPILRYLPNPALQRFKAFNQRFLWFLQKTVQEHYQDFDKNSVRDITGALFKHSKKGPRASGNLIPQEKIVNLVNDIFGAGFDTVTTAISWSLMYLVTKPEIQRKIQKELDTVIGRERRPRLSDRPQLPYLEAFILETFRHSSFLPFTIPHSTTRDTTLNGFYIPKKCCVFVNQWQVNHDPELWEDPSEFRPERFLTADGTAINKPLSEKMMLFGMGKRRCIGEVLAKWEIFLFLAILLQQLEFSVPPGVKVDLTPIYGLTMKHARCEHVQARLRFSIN

Chain of IKZF2 (Homo sapiens, UniProt Q96SW2+Q9UKS7) (Q9UKS7 whole entry): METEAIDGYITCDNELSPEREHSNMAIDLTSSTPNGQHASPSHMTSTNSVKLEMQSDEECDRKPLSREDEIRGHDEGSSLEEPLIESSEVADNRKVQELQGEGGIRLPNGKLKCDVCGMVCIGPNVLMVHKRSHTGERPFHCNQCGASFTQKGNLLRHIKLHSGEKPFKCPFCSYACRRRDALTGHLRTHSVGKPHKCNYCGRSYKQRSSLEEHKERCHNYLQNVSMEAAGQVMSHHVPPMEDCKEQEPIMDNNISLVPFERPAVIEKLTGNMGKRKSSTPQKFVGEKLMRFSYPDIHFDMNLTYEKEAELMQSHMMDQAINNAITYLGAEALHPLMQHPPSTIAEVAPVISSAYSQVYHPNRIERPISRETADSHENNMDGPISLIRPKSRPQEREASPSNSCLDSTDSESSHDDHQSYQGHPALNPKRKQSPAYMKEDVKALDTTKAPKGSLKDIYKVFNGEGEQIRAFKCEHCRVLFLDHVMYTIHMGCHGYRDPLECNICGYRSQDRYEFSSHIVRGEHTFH
Chain of IKZF2 (Homo sapiens, UniProt Q96SW2+Q9UKS7) (Q96SW2 whole entry): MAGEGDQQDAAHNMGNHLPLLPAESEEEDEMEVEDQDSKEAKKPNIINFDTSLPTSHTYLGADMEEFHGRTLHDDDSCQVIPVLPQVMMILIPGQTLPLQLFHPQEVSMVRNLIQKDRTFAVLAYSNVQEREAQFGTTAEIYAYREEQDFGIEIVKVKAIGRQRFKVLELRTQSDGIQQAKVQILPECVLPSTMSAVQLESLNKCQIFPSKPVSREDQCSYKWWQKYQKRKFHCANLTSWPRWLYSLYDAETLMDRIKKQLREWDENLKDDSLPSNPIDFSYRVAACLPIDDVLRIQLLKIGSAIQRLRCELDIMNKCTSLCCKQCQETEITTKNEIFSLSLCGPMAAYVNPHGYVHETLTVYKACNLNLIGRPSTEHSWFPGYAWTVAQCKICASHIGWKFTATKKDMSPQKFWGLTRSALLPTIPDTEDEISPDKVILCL
Chain of IKZF2 (Homo sapiens, UniProt Q96SW2+Q9UKS7) (Q16531 whole entry partner): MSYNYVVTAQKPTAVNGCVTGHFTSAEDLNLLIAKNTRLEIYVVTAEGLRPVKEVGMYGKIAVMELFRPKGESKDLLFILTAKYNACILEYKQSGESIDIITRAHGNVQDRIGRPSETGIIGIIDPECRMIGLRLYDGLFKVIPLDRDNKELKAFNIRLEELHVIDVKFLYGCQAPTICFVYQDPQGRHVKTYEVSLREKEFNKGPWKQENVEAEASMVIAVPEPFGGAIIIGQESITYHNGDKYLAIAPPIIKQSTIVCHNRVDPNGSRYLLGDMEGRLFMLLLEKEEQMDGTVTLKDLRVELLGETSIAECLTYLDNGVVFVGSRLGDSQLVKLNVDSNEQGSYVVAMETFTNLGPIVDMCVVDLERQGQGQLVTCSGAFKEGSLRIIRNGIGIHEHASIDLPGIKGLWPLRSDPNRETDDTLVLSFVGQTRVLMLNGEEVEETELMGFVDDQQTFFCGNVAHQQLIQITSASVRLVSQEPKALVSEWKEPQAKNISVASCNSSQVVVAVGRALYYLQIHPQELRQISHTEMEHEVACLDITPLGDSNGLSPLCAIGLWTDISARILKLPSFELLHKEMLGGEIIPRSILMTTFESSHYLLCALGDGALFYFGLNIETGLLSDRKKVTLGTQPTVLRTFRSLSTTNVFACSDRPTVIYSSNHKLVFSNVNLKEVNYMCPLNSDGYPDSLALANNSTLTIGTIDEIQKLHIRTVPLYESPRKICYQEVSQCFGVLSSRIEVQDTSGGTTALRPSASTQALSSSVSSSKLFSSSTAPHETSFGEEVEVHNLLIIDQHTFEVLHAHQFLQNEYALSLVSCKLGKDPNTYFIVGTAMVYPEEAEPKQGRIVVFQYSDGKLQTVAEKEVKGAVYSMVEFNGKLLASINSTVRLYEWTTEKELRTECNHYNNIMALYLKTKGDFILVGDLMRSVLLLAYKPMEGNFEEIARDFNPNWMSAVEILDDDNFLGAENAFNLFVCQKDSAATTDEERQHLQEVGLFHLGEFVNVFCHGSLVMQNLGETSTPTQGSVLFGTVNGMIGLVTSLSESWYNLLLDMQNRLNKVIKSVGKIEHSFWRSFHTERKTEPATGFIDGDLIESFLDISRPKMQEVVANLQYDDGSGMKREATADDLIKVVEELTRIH
T2 sequence (P33261 whole entry): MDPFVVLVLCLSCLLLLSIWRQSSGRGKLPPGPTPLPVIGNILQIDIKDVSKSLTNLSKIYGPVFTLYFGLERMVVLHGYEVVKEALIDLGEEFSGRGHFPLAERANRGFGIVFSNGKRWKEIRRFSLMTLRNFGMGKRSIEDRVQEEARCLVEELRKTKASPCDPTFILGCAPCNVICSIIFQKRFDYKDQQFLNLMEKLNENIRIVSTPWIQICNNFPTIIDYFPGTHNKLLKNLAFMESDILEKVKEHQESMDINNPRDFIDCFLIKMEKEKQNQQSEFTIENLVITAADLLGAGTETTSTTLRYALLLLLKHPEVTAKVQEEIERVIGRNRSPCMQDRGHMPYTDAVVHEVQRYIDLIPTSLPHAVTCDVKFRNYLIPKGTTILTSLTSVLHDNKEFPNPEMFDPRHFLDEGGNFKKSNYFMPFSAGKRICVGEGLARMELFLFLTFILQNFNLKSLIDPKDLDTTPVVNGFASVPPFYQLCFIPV
T3 sequence (P10635 whole entry): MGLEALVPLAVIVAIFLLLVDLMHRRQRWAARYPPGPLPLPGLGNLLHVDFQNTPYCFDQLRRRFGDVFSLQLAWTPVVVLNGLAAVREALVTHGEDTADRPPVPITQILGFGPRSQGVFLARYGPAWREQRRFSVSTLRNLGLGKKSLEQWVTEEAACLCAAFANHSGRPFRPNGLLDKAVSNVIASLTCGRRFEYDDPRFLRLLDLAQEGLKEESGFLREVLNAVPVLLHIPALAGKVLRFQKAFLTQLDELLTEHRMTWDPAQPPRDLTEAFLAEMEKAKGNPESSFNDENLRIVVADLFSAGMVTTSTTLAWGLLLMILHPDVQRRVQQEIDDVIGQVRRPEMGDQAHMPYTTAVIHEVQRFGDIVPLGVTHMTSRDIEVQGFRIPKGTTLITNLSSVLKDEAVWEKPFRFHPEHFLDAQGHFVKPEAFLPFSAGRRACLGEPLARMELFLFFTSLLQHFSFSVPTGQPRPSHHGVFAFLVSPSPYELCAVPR
Chain of CYP2E1 (P05181 whole entry): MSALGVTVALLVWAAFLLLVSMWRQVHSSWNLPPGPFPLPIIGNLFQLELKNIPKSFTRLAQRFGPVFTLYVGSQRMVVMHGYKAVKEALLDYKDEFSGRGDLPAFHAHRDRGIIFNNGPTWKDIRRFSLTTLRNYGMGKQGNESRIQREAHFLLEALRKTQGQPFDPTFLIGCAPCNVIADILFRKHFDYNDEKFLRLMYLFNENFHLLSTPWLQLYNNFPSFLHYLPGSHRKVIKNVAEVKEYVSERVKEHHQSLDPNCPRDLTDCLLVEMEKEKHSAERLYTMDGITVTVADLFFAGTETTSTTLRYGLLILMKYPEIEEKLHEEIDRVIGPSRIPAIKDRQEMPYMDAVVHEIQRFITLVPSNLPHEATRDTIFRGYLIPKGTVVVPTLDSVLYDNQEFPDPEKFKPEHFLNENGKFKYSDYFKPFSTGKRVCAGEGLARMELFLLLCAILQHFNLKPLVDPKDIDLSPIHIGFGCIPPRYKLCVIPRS
Chain of CYP2C8 (P10632 whole entry): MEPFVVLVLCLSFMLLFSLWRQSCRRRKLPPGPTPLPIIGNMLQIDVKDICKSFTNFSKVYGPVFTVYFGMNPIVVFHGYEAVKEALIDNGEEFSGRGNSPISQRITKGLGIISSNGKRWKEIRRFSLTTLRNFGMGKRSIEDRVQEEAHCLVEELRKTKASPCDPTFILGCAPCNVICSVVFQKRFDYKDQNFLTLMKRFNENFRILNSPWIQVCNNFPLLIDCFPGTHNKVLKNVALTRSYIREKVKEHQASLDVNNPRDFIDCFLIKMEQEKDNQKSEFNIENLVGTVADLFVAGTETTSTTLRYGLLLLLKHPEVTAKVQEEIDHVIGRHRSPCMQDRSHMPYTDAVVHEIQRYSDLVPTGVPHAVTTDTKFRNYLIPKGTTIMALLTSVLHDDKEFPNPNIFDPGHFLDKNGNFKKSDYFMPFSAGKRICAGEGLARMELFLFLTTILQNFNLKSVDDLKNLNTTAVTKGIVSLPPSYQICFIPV
T4 sequence (A0A5F9CPW0 1-526): as the sequence (Q9UKS7 whole entry) above, with E68D, M234V, I266M, A373S, H423N, A449V counted along it
T1 sequence (Q5BJF2 whole entry): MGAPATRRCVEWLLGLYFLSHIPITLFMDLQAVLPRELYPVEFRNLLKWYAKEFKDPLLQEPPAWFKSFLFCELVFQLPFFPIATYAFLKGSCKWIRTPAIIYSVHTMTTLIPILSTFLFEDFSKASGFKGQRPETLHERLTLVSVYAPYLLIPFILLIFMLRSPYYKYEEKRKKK

In the case of O=C1CCC(N2Cc3cc(C4CCN(Cc5ccccc5)CC4)ccc3C2=O)C(=O)N1 (stereo not shown) [Compound I-57, 3-(5-(1-benzylpiperidin-4-yl)-1-oxoisoindolin-2-yl)piperidine-2,6-dione], the “inhibition of CYP3A” value (CYP3A [1]) is reported as “very little and no inhibition”, the “CNS or respiratory signs” value [2] is reported as “no CNS or respiratory signs” and the “degradation of TMEM97” value (TMEM97) is reported as “degraded”. The “inhibition of CYP2C19” value (CYP2C19 [3]) was “very little and no inhibition”, the “time-dependent inhibition of CYP3A” value (CYP3A [4]) was “no apparent time-dependent inhibition” and the bioavailability ([5]; blood, po) was 91%. For the same compound, the “unchanged I-57 renally eliminated” value ([5]; non-radiolabeled I-57) was ~20 % of dose, the “inhibition of CYP2E1” value (CYP2E1) was “very little and no inhibition” and the “capacity of Treg cells to suppress Teff proliferation” value (Treg cells) was “reduced capacity to suppress Teff proliferation”. For the same compound, the “time-dependent inhibition of CYP2C19” value (CYP2C19 [6]) was “no apparent time-dependent inhibition”, the “inhibition of CYP2B6” value (CYP2B6) was “very little and no inhibition” and the blood plasma ratio [7] was 0.7 to 1.8. The “IKZF2 protein level in Treg cells” value (primary human Tregs; primary human Tregs expanded in vitro) was “reduced proportionally to the I-57 dose”, the “capacity of Tregs to suppress Teff proliferation” value (primary human Tregs; primary human Tregs expanded in vitro in the presence of I-57) was “reduced capacity to suppress Teff proliferation” and the IC50 (CYP2D6 [8]) was roughly 65 µM. The “degradation of IKZF2” value (IKZF2 [9]) was “degradation was observed”, the “IKZF2 degradation (reduction of the percentage of IKZF2 positive Tregs)” value (IKZF2 [10]; peripheral blood) was “robust dose and exposure-dependent IKZF2 degradation” and the “IKZF2 degradation (reduction of the percentage of IKZF2 positive Tregs)” value (IKZF2 [10]; tumor (MDA-MB231 xenografts)) was “robust dose and exposure-dependent IKZF2 degradation”. For the same compound, the “IFNγ production by IKZF2+ cells” value [11] was “concomitant increase in IFNγ production”, the “binding to plasma protein” value (plasma protein) was 76% and the “time-dependent inhibition of CYP2C8” value (CYP2C8) was “no apparent time-dependent inhibition”. The “induction potential for CYP3A” value (PXR) was “low”, the “proportion of proliferative peripheral T cells (Ki67 staining)” value (peripheral T cells) was “increased” and the “time-dependent inhibition of CYP2D6” value (CYP2D6 [12]) was “no apparent time-dependent inhibition”. For the same compound, the “inhibition of CYP1A2” value (CYP1A2) was “very little and no inhibition”.
